Nine molecules from patent publication US7060698B2, “Benzoxazepinone derivatives” (Hoffmann-La Roche Inc., priority 2003, dated 2006) can be followed below.

For this test, the target named is γ-secretase (Homo sapiens, UniProt P49768). Nature of the test: in vitro assay of γ-secretase activity (HEK293 membrane fraction, recombinant APP substrate, Abeta ELISA). The test is classed as biochemical. The note with it: statement in the synthesis example on the separated diastereomers; assay not named. From the text: The activity of test compounds can be evaluated in assays which measure the proteolytic cleavage of suitable substrates by γ-secretase activity. These can be cellular assays where e.g., a substrate of the γ-secretase is fused in its cytoplasmic domain to a transcription factor. Cells are transfected with this fusion gene and a reporter gene, e.g., firefly luciferase, which expression is enhanced by the transcription factor. Cleavage of the fused substrate by γ-secretase will lead to expression of the reporter gene which can be monitored in appropriate assays. The γ-secretase activity can also be determined in cell-free in vitro assays where e.g., a cell lysate containing the γ-secretase complex is incubated with a suitable APP-derived substrate which is cleaved to the Abeta peptides. The amount of produced peptides can be determined with specific ELISA assays. Cell lines of neuronal origin secrete Abeta peptides which can be measured with the specific ELISA assay. Treatment with compounds which inhibit γ-secretase leads to a reduction of secreted Abeta thus providing a measure of inhibition. The in vitro assay of γ-secretase activity uses a HEK293 membrane fraction as a source of γ-secretase and a recombinant APP substrate. Latter consist of the C-terminal 100 amino acids of human APP fused to a 6× Histidin tail for purification which is expressed in E. coli in a regulatable expression vector, e.g. pEt15. This recombinant protein corresponds to the truncated APP fragment which results after […] of the extracellular domain and which constitutes the γ-secretase substrate. The assay principle is described in Li Y M et al, PNAS 97(11), 6138–6143 (2000). Hek293 cells are mechanically disrupted and the microsomal fraction is isolated by differential centrifugation. The membranes are solubilized in detergent (0.25% CHAPSO) and incubated with the APP substrate.
Background: In an ELISA, binding on a coated surface is turned into a signal by an enzyme label.

For `CCC1Oc2ccc(Cl)cc2C(C(=O)NC2CCCCC2)N(C2CCOCC2)C1=O` (stereo not drawn) [Example 10, 7-Chloro-2-ethyl-3-oxo-4-(tetrahydro-pyran-4-yl)-2,3,4,5-tetrahydro-benzo[f][1,4]oxazepine-5-carboxylic acid cyclohexylamide], the “inhibitory activity of the separated diastereomers” value (“inhibitory activity” for short) is recorded as “both inhibitorily active”. With `CCC1Oc2ccc(Cl)cc2C(C(=O)NC2CCCCC2)N(Cc2ccccc2Cl)C1=O` (stereo not drawn) [Example 7, 7-Chloro-4-(2-chloro-benzyl)-2-ethyl-3-oxo-2,3,4,5-tetrahydro-benzo[f][1,4]oxazepine-5-carboxylic acid cyclohexylamide], the “inhibitory activity” value is given as “both inhibitorily active”. Consider `CCC1Oc2ccc(Cl)cc2C(C(=O)NC(C)(C)C)N(Cc2ccccc2Cl)C1=O` (stereo not drawn) [Example 14, 7-Chloro-4-(2-chloro-benzyl)-2-ethyl-3-oxo-2,3,4,5-tetrahydro-benzo[f][1,4]oxazepine-5-carboxylic acid tert-butylamide], for which the “inhibitory activity” value is on record as “both inhibitorily active”. Take `CCC1Oc2ccc(Cl)cc2C(C(=O)NC2CCCCC2)N(C2CCCCC2)C1=O` (stereo not drawn) [Example 6, 7-Chloro-4-cyclohexyl-2-ethyl-3-oxo-2,3,4,5-tetrahydro-benzo[f][1,4]oxazepine-5-carboxylic acid cyclohexylamide]: the “inhibitory activity” value was “both inhibitorily active”. `CCC1Oc2ccc(Cl)cc2C(C(=O)NC2CCCCC2)N(C2CCCC2)C1=O` (stereo not drawn) [Example 9, 7-Chloro-4-cyclopentyl-2-ethyl-3-oxo-2,3,4,5-tetrahydro-benzo[f][1,4]oxazepine-5-carboxylic acid cyclohexylamide]: the “inhibitory activity” value is on record as “both inhibitorily active”. With `CCC1Oc2ccc(Cl)cc2C(C(=O)NC2CCCCC2)N(Cc2cccc(C(F)(F)F)c2)C1=O` (stereo not drawn) [Example 11, 7-Chloro-2-ethyl-3-oxo-4-(3-trifluoromethyl-benzyl)-2,3,4,5-tetrahydro-benzo[f][1,4]oxazepine-5-carboxylic acid cyclohexylamide] the entry was “both inhibitorially active”; with `CCC1Oc2ccc(Cl)cc2C(C(=O)NC(C)(C)C)N(Cc2c(F)cccc2F)C1=O` (stereo not drawn) [Example 12, 7-Chloro-4-(2,6-difluoro-benzyl)-2-ethyl-3-oxo-2,3,4,5-tetrahydro-benzo[f][1,4]oxazepine-5-carboxylic acid tert-butylamide], “both inhibitorially active”. Under `CCC1Oc2ccc(Cl)cc2C(C(=O)NC(C)(C)C)N(C2CCCCC2)C1=O` (stereo not drawn) [Example 13, 7-Chloro-4-cyclohexyl-2-ethyl-3-oxo-2,3,4,5-tetrahydro-benzo[f][1,4]oxazepine-5-carboxylic acid tert-butylamide] stands “both inhibitorily active”; under `CCC1Oc2ccc(Cl)cc2C(C(=O)NC(C)(C)C)N(C2CCCC2)C1=O` (stereo not drawn) [Example 16, 7-Chloro-4-cyclopentyl-2-ethyl-3-oxo-2,3,4,5-tetrahydro-benzo[f][1,4]oxazepine-5-carboxylic acid tert-butylamide], “both inhibitorily active”.
